Data on 19 compounds can be found in PubChem BioAssay (NCI).

Values joined by “and” are separate entries in the source; they are usually repeats but may differ in a detail not shown here. Identical values can stand only once.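 Briefly, cells in 96-well plates were exposed to five compound concentrations for 48 h, and endpoints were estimated by linear interpolation. TGI denotes the concentration required for complete inhibition of growth.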 Where only a bound is given, the exact number is not on record here.

Among the test systems are OVCAR-3 ovarian; MDA-MB-231 breast; SF-295 CNS; SK-MEL-28 melanoma; EKVX NSCLC; SK-MEL-2 melanoma; OVCAR-5 ovarian; NCI/ADR-RES ovarian; A498 renal; NCI-H23 lung.
Holding throughout (test): DTP human tumour cell line panel, 48 h

`CCOP(=O)(/C=C/n1cc(C)c(=O)[nH]c1=O)OCC`: the TGI in the test with OVCAR-3 ovarian, with MDA-MB-231 breast, in the test with SF-295 CNS, with SK-MEL-28 melanoma, with EKVX NSCLC and with SK-MEL-2 melanoma was above 100 µM in each case. Further, the TGI in the test with OVCAR-5 ovarian, in the test with NCI/ADR-RES ovarian, in the test on A498 renal and with NCI-H23 lung was above 100 µM each time.
On to `C[n+]1cccc2ccc3cccnc3c21`, for which the TGI with OVCAR-3 ovarian was above 100 µM; in the test on MDA-MB-231 breast, above 100 µM; in the test on SF-295 CNS, above 100 µM; in the test with SK-MEL-28 melanoma, above 100 µM; in the test with EKVX NSCLC it was above 100 µM; in the test on SK-MEL-2 melanoma it was 97.1 µM. Further, the TGI in the test on OVCAR-5 ovarian, in the test with NCI/ADR-RES ovarian, with A498 renal and in the test on NCI-H23 lung was above 100 µM throughout.
For `Nc1[nH]c(=O)nc2c1ncn2C1OC(CO)C(O)C1O` (stereo not given), the TGI with OVCAR-3 ovarian, with MDA-MB-231 breast, in the test with SF-295 CNS, in the test with SK-MEL-28 melanoma, in the test on EKVX NSCLC and in the test on SK-MEL-2 melanoma was above 100 µM throughout. The TGI was above 100 µM in the test on OVCAR-5 ovarian, 51.1 µM in the test with NCI/ADR-RES ovarian, above 100 µM with A498 renal and above 100 µM in the test with NCI-H23 lung.
Take `N#Cc1c(NC(=S)Nc2ccc(Cl)cc2)sc2c1CCN(N1CCc3c(sc(NC(=S)Nc4ccc(Cl)cc4)c3C#N)C1)C2`: the TGI with OVCAR-3 ovarian is above 100 µM; in the test on MDA-MB-231 breast it was 27.2 µM; in the test with SF-295 CNS, 50.4 µM; in the test on SK-MEL-28 melanoma, above 100 µM; with EKVX NSCLC it was above 100 µM; in the test on SK-MEL-2 melanoma, 50.2 µM. Besides, the TGI is 31.1 µM in the test with OVCAR-5 ovarian, above 100 µM in the test with NCI/ADR-RES ovarian, 36.9 µM in the test on A498 renal and above 100 µM in the test with NCI-H23 lung.
As for `COc1cc2c(cc1OC)C(=O)N(c1ccc(OCCN3CCCC3)cc1)C2`, the TGI with OVCAR-3 ovarian, with MDA-MB-231 breast, in the test with SF-295 CNS, with SK-MEL-28 melanoma, with EKVX NSCLC and with SK-MEL-2 melanoma was above 100 µM throughout. Besides, the TGI in the test on OVCAR-5 ovarian, in the test on NCI/ADR-RES ovarian, in the test with A498 renal and with NCI-H23 lung was above 100 µM throughout.
Turning to `COc1cc2c[n+]3c4c(c2c(OC)c1OC)CCCC4CC3` (stereo not given), the TGI in the test on OVCAR-3 ovarian, with MDA-MB-231 breast, with SF-295 CNS, in the test on SK-MEL-28 melanoma, in the test on EKVX NSCLC and with SK-MEL-2 melanoma was above 100 µM each time. In addition, the TGI in the test with OVCAR-5 ovarian, with NCI/ADR-RES ovarian, in the test with A498 renal and in the test on NCI-H23 lung was above 100 µM each time.
On to `Cc1cn(CCCCCCOC(=O)NC(CCCNC(N)=O)C(=O)O)c(=O)[nH]c1=O` (stereo not given), for which the concentration for total growth inhibition (TGI) in the test on OVCAR-3 ovarian, with MDA-MB-231 breast, in the test on SF-295 CNS, in the test with SK-MEL-28 melanoma, in the test with EKVX NSCLC and in the test on SK-MEL-2 melanoma was above 100 µM each time. Also, the TGI with OVCAR-5 ovarian, with NCI/ADR-RES ovarian, with A498 renal and in the test on NCI-H23 lung was above 100 µM throughout.
Consider `CCN(CC)C(=S)SC(C(=O)Nc1nnc(-c2ccc(Cl)cc2)o1)c1ccccc1` (stereo not given), for which the TGI was 10.2 µM in the test with OVCAR-3 ovarian; 77.7 µM in the test with MDA-MB-231 breast; 48.2 µM in the test with SF-295 CNS; 33.5 µM in the test with SK-MEL-28 melanoma; 29.4 µM in the test with EKVX NSCLC; above 100 µM in the test with SK-MEL-2 melanoma. The total growth inhibition concentration (TGI) in the test on OVCAR-5 ovarian is 26.6 µM; with NCI/ADR-RES ovarian it was 30.5 µM; with A498 renal it was 41.4 µM; in the test with NCI-H23 lung, above 100 µM.
In the case of `CSC(SC)=C(C(=O)c1ccc(Cl)cc1)n1c(=O)sc2cc(Br)ccc21`, the TGI in the test on OVCAR-3 ovarian, in the test with MDA-MB-231 breast, in the test on SF-295 CNS, in the test on SK-MEL-28 melanoma, in the test with EKVX NSCLC and in the test with SK-MEL-2 melanoma was above 100 µM each time. Moreover, the TGI in the test on OVCAR-5 ovarian, in the test with NCI/ADR-RES ovarian, with A498 renal and in the test on NCI-H23 lung was above 100 µM in each case.
For the compound `Clc1ccc2c(c1)N(CCCN1CCCC13CCCCC3)c1ccccc1S2`, the TGI in the test with OVCAR-3 ovarian is 34.4 µM; in the test with MDA-MB-231 breast, 21.5 µM; in the test on SF-295 CNS it was 29.2 µM; in the test on SK-MEL-28 melanoma it was 30.3 µM; in the test with EKVX NSCLC, above 44 µM; in the test on SK-MEL-2 melanoma, 22.1 µM. Moreover, the TGI came out at 36.3 µM with OVCAR-5 ovarian, 44.5 µM with NCI/ADR-RES ovarian, 33.2 µM in the test on A498 renal and 44.2 µM in the test with NCI-H23 lung.
With `COc1cccc2c1C(=O)c1c(O)c3c(c(O)c1C2=O)C[C@@](O)(C(C)=O)CC3OC1CC(OC2CC(N)C(O)C(C)O2)C(O)C(C)O1` (stereo not given in full), the concentration for total growth inhibition (TGI) in the test with OVCAR-3 ovarian, in the test on MDA-MB-231 breast, in the test with SF-295 CNS, with SK-MEL-28 melanoma, in the test with EKVX NSCLC and in the test with SK-MEL-2 melanoma was above 100 µM in each case. Also, the TGI in the test with OVCAR-5 ovarian, in the test on NCI/ADR-RES ovarian, with A498 renal and in the test on NCI-H23 lung was above 100 µM each time.
Regarding `Cc1ccccc1NC(=O)O/N=C(\Cl)C(C)C`, the TGI with OVCAR-3 ovarian was 9.35 µM; in the test with MDA-MB-231 breast, 32.7 µM; in the test on SF-295 CNS it was 33.7 µM; in the test with SK-MEL-28 melanoma it was 6.25 µM; in the test on EKVX NSCLC, 4.94 µM; in the test on SK-MEL-2 melanoma, 32.6 µM. The TGI in the test with OVCAR-5 ovarian stood at 40.5 µM; with NCI/ADR-RES ovarian, 33.7 µM; in the test on A498 renal, 36.4 µM; in the test with NCI-H23 lung it was 32 µM.
On to `N[C@@H](CCC(=O)NC(Cc1ccccc1)C(=O)NCP(=O)(O)O)C(=O)O` (stereo not given in full), for which the TGI in the test on OVCAR-3 ovarian, with MDA-MB-231 breast, with SF-295 CNS, in the test with SK-MEL-28 melanoma, in the test with EKVX NSCLC and with SK-MEL-2 melanoma was above 100 µM throughout. Besides, the TGI in the test with OVCAR-5 ovarian, with NCI/ADR-RES ovarian, in the test with A498 renal and in the test on NCI-H23 lung was above 100 µM each time.
In the case of `O=P1(N(CCCl)CCCl)Oc2ccc(Cl)cc2C(C(Cl)(Cl)Cl)c2cc(Cl)ccc2O1` (stereo not given), the total growth inhibition concentration (TGI) with OVCAR-3 ovarian was 24.3 µM; in the test on MDA-MB-231 breast it was 44.4 µM; with SF-295 CNS, 23.7 µM; in the test on SK-MEL-28 melanoma it was above 100 µM; in the test with EKVX NSCLC, above 100 µM; in the test on SK-MEL-2 melanoma it was 47.3 µM. The TGI with OVCAR-5 ovarian, with NCI/ADR-RES ovarian, with A498 renal and with NCI-H23 lung was above 100 µM in each case.
For `CC(C)(C)C1CCC2c3c([nH]c4ccccc34)C3C(=O)N(c4ccc([N+](=O)[O-])cc4)C(=O)C3C2C1` (stereo not given), the TGI with OVCAR-3 ovarian is 28.4 µM; with MDA-MB-231 breast, 48.4 µM; in the test on SF-295 CNS, 93.8 µM; in the test on SK-MEL-28 melanoma, above 100 µM; in the test with EKVX NSCLC, above 100 µM; in the test with SK-MEL-2 melanoma, 29.3 µM. Moreover, the TGI was above 100 µM in the test with OVCAR-5 ovarian, 41 µM in the test on NCI/ADR-RES ovarian, 79.4 µM with A498 renal and 33.7 µM with NCI-H23 lung.
For `COC(=N)C1(C#N)NC(c2ccsc2)C(C#N)(C#N)NC1c1ccsc1` (stereo not given), the concentration for total growth inhibition (TGI) with OVCAR-3 ovarian, in the test with MDA-MB-231 breast, with SF-295 CNS, in the test on SK-MEL-28 melanoma, with EKVX NSCLC and with SK-MEL-2 melanoma was above 100 µM each time. Moreover, the TGI in the test with OVCAR-5 ovarian, in the test on NCI/ADR-RES ovarian, in the test with A498 renal and in the test with NCI-H23 lung was above 100 µM each time.
As to `N#CCCC(C=O)(CCC#N)CCC#N`, the TGI with OVCAR-3 ovarian, in the test on MDA-MB-231 breast, with SF-295 CNS, in the test on SK-MEL-28 melanoma, in the test on EKVX NSCLC and in the test with SK-MEL-2 melanoma was above 100 µM each time. Further, the TGI with OVCAR-5 ovarian, in the test with NCI/ADR-RES ovarian, in the test with A498 renal and in the test on NCI-H23 lung was above 100 µM in each case.
As for `O=CCCCCCOCc1ccccc1`, the TGI with OVCAR-3 ovarian is above 100 µM; in the test with MDA-MB-231 breast it was above 100 µM; with SF-295 CNS, above 60.4 µM; with SK-MEL-28 melanoma, above 100 µM; with EKVX NSCLC it was above 100 µM; in the test with SK-MEL-2 melanoma, above 100 µM. In addition, the TGI was above 100 µM in the test with OVCAR-5 ovarian, above 100 µM in the test with NCI/ADR-RES ovarian, above 100 µM in the test on A498 renal and above 82.6 µM in the test on NCI-H23 lung.
Consider `COC(=O)C1OC(O[C@H]2CC[C@]3(C)[C@H]4CC=C5[C@@H]6CC(C)(C)CC[C@]6(C(=O)OC6OCC(O)C(O)C6OC6OC(C)C(OC7OCC(O)C(O)C7O)C(O)C6O)[C@H](O)C[C@@]5(C)[C@]4(C)CC[C@H]3C2(C)C)C(O)C(O)C1O` (stereo not given in full), for which the TGI was > 78.1 µM and 25 µM in the test with OVCAR-3 ovarian; 7.48 µM and 4.39 µM with MDA-MB-231 breast; 13.7 µM and 14.9 µM in the test on SF-295 CNS; 3.57 µM and 4.63 µM with SK-MEL-28 melanoma; 8.04 µM and 11.1 µM in the test with EKVX NSCLC; 7.83 µM and 7.96 µM in the test on SK-MEL-2 melanoma. The TGI is 15.8 µM and 19.4 µM in the test with OVCAR-5 ovarian; 22.5 µM and 12.3 µM in the test on NCI/ADR-RES ovarian; 3.55 µM and 3.85 µM in the test with A498 renal; 4.76 µM and 6.24 µM with NCI-H23 lung.
